In US7049321B2, “Methods and pharmaceutical compositions for treatment of central and peripheral nervous system disorders and compounds useful therefor” (Israel Institute for Biological Research, priority 2002, dated 2006):

How the values were obtained:
[1] = molecular target: T1, M1 receptors (Rattus norvegicus, UniProt P08482); assay: [3H]PZ competition binding to rat cortical membranes; details: rat cortex
T1 construct: from tissue; host or cells: rat cortical membranes
T1 sequence (P08482 1-460): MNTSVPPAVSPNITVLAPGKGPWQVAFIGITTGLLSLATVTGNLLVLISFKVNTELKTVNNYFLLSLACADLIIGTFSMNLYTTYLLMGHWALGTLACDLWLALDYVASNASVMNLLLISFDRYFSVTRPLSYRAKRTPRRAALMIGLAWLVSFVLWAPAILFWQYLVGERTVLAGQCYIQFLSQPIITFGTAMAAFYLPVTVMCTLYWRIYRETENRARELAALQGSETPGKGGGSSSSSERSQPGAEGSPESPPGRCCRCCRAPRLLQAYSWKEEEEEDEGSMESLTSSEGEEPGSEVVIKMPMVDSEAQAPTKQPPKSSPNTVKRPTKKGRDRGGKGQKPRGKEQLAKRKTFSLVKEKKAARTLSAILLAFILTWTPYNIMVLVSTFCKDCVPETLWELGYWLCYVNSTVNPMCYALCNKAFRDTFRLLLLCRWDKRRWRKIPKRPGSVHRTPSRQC
Source text: Pirenzepine (PZ), a muscarinic antagonist, binds preferentially to M1 receptors while OXO-M binds to all mAChR subtypes non-selectively; the ratio between the Ki values for PZ versus that of OXO-M may be indicative of the selectivity of the tested compound. The smaller the ratio, the more M1 selective is the tested compound. […] The OXO-M/PZ ratio is ˜0.36 showing a moderately high selectivity for the M1 receptor.

[2] = molecular target: muscarinic receptor; assay: [3H]OXO-M competition binding; details: rat cortex
[3] = tested on: rat primary cerebral cortex cell cultures; assay: APPs secretion in rat primary cortical cell cultures; assay type: cell-based; details: 100 μm
[4] = tested on: rat primary hippocampal cell cultures; assay: APPs secretion in rat primary hippocampal cell cultures; assay type: cell-based; details: 100 μm
[5] = tested on: rabbits with nbm lesions; assay: CSF and cortical Aβ in hypocholinergic (nbm-lesioned) rabbits; assay type: in vivo, New Zealand White rabbits; details: 4 weeks
Source text: It is known that experimentally-induced cortical cholinergic denervation results in biochemical elevations of cortical Aβ concentrations and in histologic Aβ deposition (Beach et al, Neurosci Lett 283: 9–12, 2000), and that administration of muscarinic Ml-selective agents to normal animals decreases CSF AP concentrations {Beach et al Brain Res. 905: 220–223, 2001}.
Twenty-eight female New Zealand White rabbits, about 2.5 kg each (young adults) were used. Twenty-one received lesions of the cholinergic nucleus basalis magnocellularis (nbm). The lesion was accomplished with unilateral i.c.v. injections of an immunotoxin consisting of the ribosomal toxin saporin conjugated to the monoclonal antibody ME20.4, which is directed against the low-affinity neurotrophin receptor, p75. The ME20.4 antibody is made against monkey p75 and also recognizes rabbit p75. The dose of immunotoxin was 32.4 μg in 12 μl; this was delivered to the right lateral ventricle 2 mm lateral to the bregma. Seven animals received i.c.v. injections of sterile normal saline (sham lesion). Animals which received the immunotoxin were divided into 3 groups of 7. […] Another group received physostigmine hemisalicylate in normal saline by s.c. osmotic pump at a daily dose of 3 mg/kg. The third group received twice-daily sterile saline s.c. injections. The animals which received a sham lesion were implanted with s.c. osmotic pumps filled with sterile normal saline. Animals were euthanized 4 weeks after surgery. […] Cerebrospinal fluid was taken from the cisterna magna of all animals at the time of sacrifice; the brain was removed and sliced coronally into 0.5 cm slices. […] The other slices were frozen on sheets of dry ice (the other slices are the non-fixed 0.5 cm coronal slices of cerebrum, brainstem and cerebellum).

[6] = molecular target: T2, M2 mAChR (Homo sapiens, UniProt P08172); assay: Intracellular Ca increase in modified cell cultures, M2; assay type: cell-based
T2 construct: expressed in transfected cells; host or cells: 'modified cell cultures' giving a Ca increase; modification not described
T2 sequence (P08172 whole entry): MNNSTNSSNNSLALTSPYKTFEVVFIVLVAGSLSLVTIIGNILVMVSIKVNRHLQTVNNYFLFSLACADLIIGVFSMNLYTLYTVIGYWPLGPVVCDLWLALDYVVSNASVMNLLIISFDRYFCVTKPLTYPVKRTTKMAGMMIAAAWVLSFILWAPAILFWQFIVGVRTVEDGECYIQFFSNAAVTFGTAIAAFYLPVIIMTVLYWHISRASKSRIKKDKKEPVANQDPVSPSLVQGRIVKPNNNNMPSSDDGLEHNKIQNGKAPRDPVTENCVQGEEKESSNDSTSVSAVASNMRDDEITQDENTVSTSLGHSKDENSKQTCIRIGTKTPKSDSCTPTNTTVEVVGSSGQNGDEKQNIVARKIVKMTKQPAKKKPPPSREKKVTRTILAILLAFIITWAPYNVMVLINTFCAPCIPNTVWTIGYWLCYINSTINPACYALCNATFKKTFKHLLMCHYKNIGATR

`CC[C@H]1SC2(CCNCC2)NC1=O` [AF291, (R)-2-Ethyl-1-thia-4,8-diaza-spiro[4.5]decan-3-one] was tested. Which Ki [1] did it give?
Its Ki is 10.7 µM.

What about the Ki [2] of the same compound?
The Ki was 6.56 µM.

With `CNC(=O)Oc1ccc2c(c1)[C@]1(C)CCN(C)[C@@H]1N2C` [physostigmine, reference compound] as the compound, how does the “APPs secretion, activity in words” value [3] read?
The value was “inactive”.

And the “APPs secretion, activity in words” value [4]?
The value was “inactive”.

And the “Histologic Aβ deposition, % of the lesioned, untreated group” value [5]?
Its value is 6.4%.

For `C[N+](C)(C)CCOC(N)=O` [carbachol, reference compound], which “Increase in activity on the M2 mAChR” value [6] is on record?
The value was 8 fold.
